In this assay the target is recombinant human Muscarinic M1 receptor (Homo sapiens (Human), UniProt P11229). Put plainly: Allosteric potency EC50, CHO cells with pCRE-Luc reporter, in presence of EC20 of acetylcholine. The class given is cell-based. As to conditions: 4 hours. Here is the method: Determination of Allosteric Potency EC50 Values for Muscarinic M1 Receptor:
A stable CHO cell line expressing recombinant human Muscarinic M1 receptor and pCRE-Luc reporter system was used for cell-based assay. The assay offers a non-radioactive based approach to determine binding of a compound to GPCRs. In this specific assay, the level of intracellular cyclic AMP which is modulated by activation or inhibition of the receptor is measured. The recombinant cells harbor luciferase reporter gene under the control of cAMP response element.
The above cells were grown in 96 well clear bottom white plates in Hams F12 medium containing 10% fetal bovine serum (FBS). Prior to the addition of compounds or standard agonist, cells were serum starved overnight. Increasing concentrations of test compounds were added along with EC20 of acetylcholine in OptiMEM medium to the cells. The incubation was continued at 37° C. in CO2 incubator for 4 hours. Medium was removed and cells were washed with phosphate buffered saline. The cells were lysed and luciferase activity was measured in a Luminometer. Luminescence units were plotted against the compound concentrations using Graphpad software. EC50 values of the compounds were defined as the concentration required in stimulating the luciferase activity by 50% in presence of EC20 of acetylcholine.

pEC50: −log10 of the molar value.

Chain of recombinant human Muscarinic M1 receptor (P11229 whole entry): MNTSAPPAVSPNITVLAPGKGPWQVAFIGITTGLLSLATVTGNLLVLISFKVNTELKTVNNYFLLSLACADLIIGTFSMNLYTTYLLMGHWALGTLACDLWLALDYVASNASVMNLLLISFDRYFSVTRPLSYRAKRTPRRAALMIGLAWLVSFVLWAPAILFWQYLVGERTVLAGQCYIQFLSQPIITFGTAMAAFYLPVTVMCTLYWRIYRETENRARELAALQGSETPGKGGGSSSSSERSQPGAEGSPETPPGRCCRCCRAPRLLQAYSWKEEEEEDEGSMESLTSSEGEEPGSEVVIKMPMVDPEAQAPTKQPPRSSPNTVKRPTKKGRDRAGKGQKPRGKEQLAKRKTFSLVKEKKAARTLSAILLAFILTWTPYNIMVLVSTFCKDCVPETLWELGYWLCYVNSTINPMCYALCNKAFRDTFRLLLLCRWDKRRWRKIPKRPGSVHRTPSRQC

What is called pEC50 is the negative decadic logarithm of the EC50, by convention in mol/L. Consider `O=C(N[C@@H]1CCC[C@H]1O)C1=CN(Cc2cccc(F)c2F)c2cccc(F)c2O1` [Example 42, N-(trans-1R,2R-2-Hydroxycyclopentyl)-4-(2,3-difluorobenzyl)-8-fluoro-4H-benzo[1,4]oxazine-2-carboxamide], for which the negative logarithm of the EC50 (pEC50) is 6.16.

`O=C(Nc1ccccc1CO)C1=CN(Cc2ccccc2F)c2ccccc2O1` [Example 43, N-(2-Hydroxymethylphenyl)-4-(2-fluorobenzyl)-4H-benzo[1,4]oxazine-2-carboxamide]: the pEC50 was 5.79. The result for `O=C(Nc1ccccc1CO)C1=CN(Cc2cccc(F)c2F)c2cccc(F)c2O1` [Example 44, N-(2-Hydroxymethylphenyl)-4-(2,3-difluorobenzyl)-8-fluoro-4H-benzo[1,4]oxazine-2-carboxamide] reads 5.89. The result for `O=C(Nc1ccccc1CO)C1=CN(Cc2cccc(F)c2F)c2ccccc2O1` [Example 45, N-(2-Hydroxymethylphenyl)-4-(2,3-difluorobenzyl)-4H-benzo[1,4]oxazine-2-carboxamide] reads 5.80; that for `O=C(Nc1ccccc1CO)C1=CN(Cc2ccccc2F)c2cccc(F)c2O1` [Example 46, N-(2-Hydroxymethylphenyl)-4-(2-fluorobenzyl)-8-fluoro-4H-benzo[1,4]oxazine-2-carboxamide], 5.96. The result for `CC(C)C(CO)NC(=O)C1=CN(Cc2ccccc2F)c2cccc(F)c2O1` (centres unmarked) [Example 47, N-(1-Hydroxymethyl-2-methylpropyl)-4-(2-fluorobenzyl)-8-fluoro-4H-benzo[1,4]oxazine-2-carboxamide] reads 5.88; that for `O=C(N[C@H]1CCCC[C@@H]1O)C1=CN(Cc2ccccc2)c2cccc(F)c2O1` [Example 48, N-(cis-1S,2S-2-Hydroxycyclohexyl)-4-benzyl-8-fluoro-4H-benzo[1,4]oxazine-2-carboxamide], 6.84. Take `O=C(N[C@H]1CCCC[C@@H]1O)C1=CN(Cc2ccnc(-c3ccccc3)c2)c2ccccc2O1` [Example 52, N-(cis-1S,2S-2-Hydroxycyclohexyl)-4-(2-phenylpyridin-4-ylmethyl)-4H-benzo[1,4]oxazine-2-carboxamide]: the pEC50 was 5.87. Regarding `O=C(N[C@H]1CCCC[C@@H]1O)C1=CN(Cc2ccnc(-c3ccccc3)c2)c2cccc(F)c2O1` [Example 53, N-(cis-1S,2S-2-Hydroxycyclohexyl)-4-(2-phenylpyridin-4-ylmethyl)-8-fluoro-4H-benzo[1,4]oxazine-2-carboxamide], the pEC50 is 6.64.

For `O=C(N[C@H]1CCCC[C@@H]1O)C1=CN(Cc2ccnc(Cl)c2)c2cccc(F)c2O1` [Example 54, N-(cis-1S,2S-2-Hydroxycyclohexyl)-4-(2-chloropyridin-4-ylmethyl)-8-fluoro-4H-benzo[1,4]oxazine-2-carboxamide], the pEC50 was 7.06.

`O=C(N[C@H]1CCCC[C@@H]1O)C1=CN(Cc2ccccc2F)c2c(F)cccc2O1` [Example 55, N-(cis-1S,2S-2-Hydroxycyclohexyl)-4-(2-fluorobenzyl)-5-fluoro-4H-benzo[1,4]oxazine-2-carboxamide]: the negative logarithm of the EC50 (pEC50) is 6.08. In the case of `O=C(N[C@H]1CCCC[C@@H]1O)C1=CN(Cc2ccccn2)c2c(F)cccc2O1` [Example 56, N-(cis-1S,2S-2-Hydroxycyclohexyl)-4-(pyridin-2-ylmethyl)-5-fluoro-4H-benzo[1,4]oxazine-2-carboxamide] it was 5.83. As to `O=C(N[C@H]1CCCC[C@@H]1O)C1=CN(Cc2ccncc2)c2cccc(F)c2O1` [Example 57, N-(cis-1S,2S-2-Hydroxycyclohexyl)-4-(pyridin-4-ylmethyl)-8-fluoro-4H-benzo[1,4]oxazine-2-carboxamide], the pEC50 was 6.75.

Regarding `Cc1cc(-c2cc(CN3C=C(C(=O)N[C@H]4CCCC[C@@H]4O)Oc4ccccc43)ccn2)cnc1F` [Example 58, N-(cis-1S,2S-2-Hydroxycyclohexyl)-4-(6′-fluoro-5′-methyl-[2,3′]bipyridinyl-4-ylmethyl)-4H-benzo[1,4]oxazine-2-carboxamide], the negative-log EC50 (pEC50) was 5.87.
